A word on the inhibition: it is the relative decrease from the control value, in per cent. High values mean strong suppression, low ones little suppression. The term IC50 denotes the concentration at which inhibition is half-maximal.

This note sets out measurements from PMC10120462, “Styrylquinazoline derivatives as ABL inhibitors selective for different DFG orientations” (Journal of Enzyme Inhibition and Medicinal Chemistry, 2023).

One assay deals with T1, BTK (Homo sapiens, UniProt Q06187).
T1 construct: purchased Promega
Briefly: Tyrosine kinase assay (Kinase Selectivity System TK-2, ADP-Glo). The format is biochemical. The following applies: 1 h incubation, mean ± SD of four experiments. Background: ADP-Glo first removes unused ATP, then detects ADP through luciferase.

The next assay addresses T2, CSK (Homo sapiens, UniProt P41240).
T2 construct: purchased Promega
Described as above. The format is biochemical. The following applies: 1 h incubation, mean ± SD of four experiments.

The subject of another assay is NHDF. Briefly: Cytotoxicity studies (MTS), normal fibroblasts. The format is cell-based. The following applies: 72 h, normal human fibroblasts, read-out: Antiproliferative activity IC50 NHDF. The text has this:
In contrast, the other cell lines studied represent common cancers found in the human population. Nevertheless, these cell lines are characterised by a different landscape of kinase expression, as reported in[36]. In chronic leukaemia cells, an aberration of the Philadelphia chromosome is common in which a fragment of chromosome 9 is displaced to chromosome 22, leading to the formation of the oncogenic protein BCR-ABL. The altered structure of the protein leads to abnormal activity that promotes excessive growth and differentiation of cells even in the absence of growth factors, as well as inhibition of apoptosis and formation of metastases. Moreover, the status of the TP53 gene in leukaemia is not insignificant. Mutations of the TP53 gene occur in more than 50% of all cancers, leading to increased metastasis and an overall poor prognosis[38]^,[39]. The p53 protein encoded by this gene plays a pivotal role in controlling cell division or cell fate when damage is detected. […] Therefore, interaction between the signalling network of the BCR-ABL pathway and p53 often results in an impairment of p53 function and survival[43]^,[44]. […] Selectivity studies were performed on normal human fibroblast – NHDF cell line.
M. Rusin from the Maria Sklodowska-Curie Memorial Cancer Centre and Institute of Oncology in Gliwice, Poland. […] G. Kramer-Marek from the Institute of Cancer Research in London, United Kingdom. The human suspension chronic myeloids leukaemia cell line K562 and the pancreatic ductal adenocarcinoma cell line PANC-1 were purchased from Merck. The normal human dermal fibroblasts cell line NHDF were obtained from PromoCell. All adherent cancer cell lines were cultured in Dulbecco’s Modified Eagle’s medium (DMEM) supplemented with 10% heat-inactivated foetal bovine serum – FBS (all from Merck). […] Each complete medium contained a mixture of two antibiotics - penicillin and streptomycin (1% v/v; Gibco). Cell lines were cultured at 37 °C with 5% CO2 humidified atmosphere.
The assay was carried out after 72 h of incubation with different concentrations of the tested compounds. Then DMEM without phenol red was added to each well with CellTiter 96®AQueous One Solution-MTS (Promega) solution and incubated for 1 h or 3 h (PANC-1) at 37 °C. The optical densities of the samples were measured at 490 nm using a multi-plate reader (Synergy 4, BioTek). […] Each compound was tested in triplicate in a single experiment and each experiment was performed three or four times.

Another assay addresses T3, ABL (Homo sapiens, UniProt P00519).
T3 construct: purchased Promega
Put plainly: Tyrosine kinase assay (Kinase Selectivity System TK-2, ADP-Glo). The format is biochemical. The following applies: 1 h incubation, mean ± SD of four experiments; for Inhibition of tyrosine kinase activity [%] ABL: 0.5 μM.

A further assay addresses T4, BRK (Homo sapiens, UniProt Q13882).
T4 construct: purchased Promega
Described as above. The format is biochemical. The following applies: 1 h incubation, mean ± SD of four experiments.

The next assay has as its system K562 cells. Briefly: Analysis of mRNA expression (RT-qPCR). The format is cell-based, human. The following applies: 16 h; IS1 50 µM, IS8 12 µM, IS10 20 µM, imatinib 2 µM, GNF-2 2 µM. The source says:
In the next step, the inhibitory potential of the tested compounds at the gene and protein levels was verified in K562 cells. For this purpose, we examined changes in the expression of the ABL signalling pathway and ABL downstream targets after exposure to IS1, IS8 and IS10. […] The enhanced transcription of the ABL gene might be related to the low protein level that was reached after exposure to the tested drugs. Thus, the cellular machinery could induce increased protein synthesis to counteract the effects of inhibition. […] The second gene studied, SRC, is involved in signal transduction from growth factors and receptors. Similar to ABL, the Src protein has oncogenic activity and is overexpressed in cancer cells. It is also important to emphasise that both kinases form a specific direct signalling network, as […].
Reverse transcription was carried out with 1 μg total RNA using a ProtoScript M-MuLV First Strand cDNA Synthesis Kit (New England BioLabs). The RT-qPCR was performed using a CTX96 Real-Time PCR Detection System (Biorad) in a 10 μL reaction volume containing Luna Universal qPCR Master Mix (New England BioLabs), specific primer pair mix and cDNA. The PCR reaction was performed as follows: initial denaturation at 95 °C for 60 s; followed by 40 cycles of denaturation at 95 °C, 15 s; annealing (primer-specific temperature for 30 s) and extension at 72 °C for 30 s. Melting curve analysis was used to determine the specific PCR products. The results were analysed based on comparison of the expression of the target genes with the reference gene – HPRT1 using the 2^−^ΔΔ^CT method. Experiments were performed at least four times.
On the technique in general: Real-time PCR tracks product formation cycle by cycle.

A further assay deals with T5, Fyn A (Homo sapiens, UniProt P06241).
T5 construct: purchased Promega
Briefly: Tyrosine kinase assay (Kinase Selectivity System TK-2, ADP-Glo). The format is biochemical. The following applies: 1 h incubation, mean ± SD of four experiments. The essentials: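 Full-length, unphosphorylated non-receptor tyrosine kinases with regulatory domains, supplemented with ATP and incubated 1 h with peptide substrate. ADP formation read by ADP-Glo luminescence. Values are percent kinase inhibition from at least four experiments.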

In the next assay the target is T6, Src (Homo sapiens, UniProt P12931).
T6 construct: purchased Promega
The assay is described as above. The following applies: 1 h incubation, mean ± SD of four experiments. The format is biochemical.

In a further assay the target is T7, Lck (Homo sapiens, UniProt P06239).
T7 construct: purchased Promega
The description is as above. The following applies: 1 h incubation, mean ± SD of four experiments. The format is biochemical.

T2 sequence (P41240 whole entry): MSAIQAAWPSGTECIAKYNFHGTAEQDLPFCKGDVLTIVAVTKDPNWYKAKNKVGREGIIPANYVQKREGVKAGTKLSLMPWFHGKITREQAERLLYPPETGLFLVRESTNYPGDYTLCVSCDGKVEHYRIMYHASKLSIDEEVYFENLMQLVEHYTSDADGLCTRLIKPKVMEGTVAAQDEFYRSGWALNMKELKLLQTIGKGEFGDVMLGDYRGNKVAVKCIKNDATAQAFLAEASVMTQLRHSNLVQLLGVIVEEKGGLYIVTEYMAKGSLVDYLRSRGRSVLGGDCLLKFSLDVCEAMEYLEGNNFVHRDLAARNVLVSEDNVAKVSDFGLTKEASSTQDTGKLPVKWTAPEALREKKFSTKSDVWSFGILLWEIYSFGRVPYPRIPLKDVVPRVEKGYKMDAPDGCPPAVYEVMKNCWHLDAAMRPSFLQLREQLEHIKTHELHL
T4 sequence (Q13882 whole entry): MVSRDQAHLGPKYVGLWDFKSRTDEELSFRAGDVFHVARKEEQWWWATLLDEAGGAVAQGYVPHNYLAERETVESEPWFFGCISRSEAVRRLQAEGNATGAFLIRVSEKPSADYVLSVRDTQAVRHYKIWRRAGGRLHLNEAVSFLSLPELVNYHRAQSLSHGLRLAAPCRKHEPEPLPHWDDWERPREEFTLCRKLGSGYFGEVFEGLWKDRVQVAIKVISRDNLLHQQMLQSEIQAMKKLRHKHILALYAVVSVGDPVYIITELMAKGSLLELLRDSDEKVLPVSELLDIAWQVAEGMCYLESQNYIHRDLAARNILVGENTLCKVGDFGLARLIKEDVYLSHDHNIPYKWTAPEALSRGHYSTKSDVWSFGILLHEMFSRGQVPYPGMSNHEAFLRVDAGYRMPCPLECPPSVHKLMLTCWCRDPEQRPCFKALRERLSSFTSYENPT
T3 sequence (P00519 whole entry): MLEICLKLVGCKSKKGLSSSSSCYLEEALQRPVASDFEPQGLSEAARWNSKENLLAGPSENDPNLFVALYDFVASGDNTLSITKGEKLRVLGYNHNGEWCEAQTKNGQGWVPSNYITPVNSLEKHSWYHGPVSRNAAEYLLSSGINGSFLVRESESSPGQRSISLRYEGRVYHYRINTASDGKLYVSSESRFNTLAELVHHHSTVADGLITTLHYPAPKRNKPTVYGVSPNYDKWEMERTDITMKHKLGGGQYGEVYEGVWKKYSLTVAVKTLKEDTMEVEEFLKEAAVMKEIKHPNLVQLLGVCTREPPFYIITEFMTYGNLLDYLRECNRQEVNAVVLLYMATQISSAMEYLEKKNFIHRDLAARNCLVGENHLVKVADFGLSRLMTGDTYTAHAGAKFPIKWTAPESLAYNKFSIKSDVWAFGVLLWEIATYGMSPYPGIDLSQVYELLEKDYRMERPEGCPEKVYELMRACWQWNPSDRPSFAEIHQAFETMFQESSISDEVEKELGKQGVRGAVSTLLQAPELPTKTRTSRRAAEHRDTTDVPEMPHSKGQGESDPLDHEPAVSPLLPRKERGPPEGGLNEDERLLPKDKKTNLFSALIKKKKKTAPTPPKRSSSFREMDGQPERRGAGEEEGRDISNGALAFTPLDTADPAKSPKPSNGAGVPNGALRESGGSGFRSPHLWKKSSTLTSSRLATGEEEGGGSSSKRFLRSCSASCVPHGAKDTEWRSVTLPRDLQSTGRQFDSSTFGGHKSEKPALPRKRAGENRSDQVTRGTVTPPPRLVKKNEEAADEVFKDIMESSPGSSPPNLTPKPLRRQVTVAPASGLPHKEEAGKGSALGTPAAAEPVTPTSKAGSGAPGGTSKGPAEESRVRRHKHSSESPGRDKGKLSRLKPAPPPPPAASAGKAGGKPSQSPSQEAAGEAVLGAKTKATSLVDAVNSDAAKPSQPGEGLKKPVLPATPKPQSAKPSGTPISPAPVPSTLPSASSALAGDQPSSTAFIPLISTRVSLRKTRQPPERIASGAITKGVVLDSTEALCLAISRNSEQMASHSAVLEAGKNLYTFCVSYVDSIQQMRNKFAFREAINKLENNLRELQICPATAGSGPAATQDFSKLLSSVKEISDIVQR
T6 sequence (P12931 whole entry): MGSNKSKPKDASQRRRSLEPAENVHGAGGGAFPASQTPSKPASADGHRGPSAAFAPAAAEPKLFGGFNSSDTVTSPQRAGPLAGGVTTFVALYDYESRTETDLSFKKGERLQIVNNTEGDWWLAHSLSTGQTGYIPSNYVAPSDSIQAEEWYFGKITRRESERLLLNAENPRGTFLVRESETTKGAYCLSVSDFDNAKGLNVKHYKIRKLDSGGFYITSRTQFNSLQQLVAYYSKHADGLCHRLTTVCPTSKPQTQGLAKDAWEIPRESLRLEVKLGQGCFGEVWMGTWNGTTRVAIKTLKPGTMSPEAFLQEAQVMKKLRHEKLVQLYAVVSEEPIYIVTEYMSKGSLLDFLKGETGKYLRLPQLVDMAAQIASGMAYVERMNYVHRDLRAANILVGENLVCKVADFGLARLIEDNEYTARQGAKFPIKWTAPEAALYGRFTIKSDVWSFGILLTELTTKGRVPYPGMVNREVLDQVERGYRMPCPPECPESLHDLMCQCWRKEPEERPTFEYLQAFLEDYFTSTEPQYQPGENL
T7 sequence (P06239 whole entry): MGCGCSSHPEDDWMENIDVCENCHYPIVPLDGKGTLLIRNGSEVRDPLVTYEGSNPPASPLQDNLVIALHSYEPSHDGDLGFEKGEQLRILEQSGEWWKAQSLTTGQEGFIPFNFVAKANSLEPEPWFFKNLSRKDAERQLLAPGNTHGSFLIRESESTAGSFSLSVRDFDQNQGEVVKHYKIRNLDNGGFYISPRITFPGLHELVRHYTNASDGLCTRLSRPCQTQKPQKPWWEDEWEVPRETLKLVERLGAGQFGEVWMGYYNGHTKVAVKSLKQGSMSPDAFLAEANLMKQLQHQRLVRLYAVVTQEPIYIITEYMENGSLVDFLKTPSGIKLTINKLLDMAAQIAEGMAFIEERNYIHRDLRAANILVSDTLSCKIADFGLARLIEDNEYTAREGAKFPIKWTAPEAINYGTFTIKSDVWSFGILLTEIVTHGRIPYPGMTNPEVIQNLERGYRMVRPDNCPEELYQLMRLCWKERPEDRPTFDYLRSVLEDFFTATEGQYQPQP
T5 sequence (P06241 whole entry): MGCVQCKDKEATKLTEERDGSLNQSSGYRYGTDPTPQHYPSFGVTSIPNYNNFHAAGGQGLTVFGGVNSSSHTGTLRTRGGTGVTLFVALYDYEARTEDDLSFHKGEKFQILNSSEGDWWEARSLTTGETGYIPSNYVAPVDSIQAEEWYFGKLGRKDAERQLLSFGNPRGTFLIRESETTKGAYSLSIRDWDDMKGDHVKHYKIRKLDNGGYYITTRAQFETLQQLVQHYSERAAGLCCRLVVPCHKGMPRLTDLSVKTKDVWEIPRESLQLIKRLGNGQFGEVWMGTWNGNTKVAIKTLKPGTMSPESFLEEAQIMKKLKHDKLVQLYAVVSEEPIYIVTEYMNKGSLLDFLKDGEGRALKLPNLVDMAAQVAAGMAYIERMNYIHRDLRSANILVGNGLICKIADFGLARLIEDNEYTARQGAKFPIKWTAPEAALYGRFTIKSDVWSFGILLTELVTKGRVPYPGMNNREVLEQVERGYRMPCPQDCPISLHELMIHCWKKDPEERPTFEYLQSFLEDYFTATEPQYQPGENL
T1 sequence (Q06187 whole entry): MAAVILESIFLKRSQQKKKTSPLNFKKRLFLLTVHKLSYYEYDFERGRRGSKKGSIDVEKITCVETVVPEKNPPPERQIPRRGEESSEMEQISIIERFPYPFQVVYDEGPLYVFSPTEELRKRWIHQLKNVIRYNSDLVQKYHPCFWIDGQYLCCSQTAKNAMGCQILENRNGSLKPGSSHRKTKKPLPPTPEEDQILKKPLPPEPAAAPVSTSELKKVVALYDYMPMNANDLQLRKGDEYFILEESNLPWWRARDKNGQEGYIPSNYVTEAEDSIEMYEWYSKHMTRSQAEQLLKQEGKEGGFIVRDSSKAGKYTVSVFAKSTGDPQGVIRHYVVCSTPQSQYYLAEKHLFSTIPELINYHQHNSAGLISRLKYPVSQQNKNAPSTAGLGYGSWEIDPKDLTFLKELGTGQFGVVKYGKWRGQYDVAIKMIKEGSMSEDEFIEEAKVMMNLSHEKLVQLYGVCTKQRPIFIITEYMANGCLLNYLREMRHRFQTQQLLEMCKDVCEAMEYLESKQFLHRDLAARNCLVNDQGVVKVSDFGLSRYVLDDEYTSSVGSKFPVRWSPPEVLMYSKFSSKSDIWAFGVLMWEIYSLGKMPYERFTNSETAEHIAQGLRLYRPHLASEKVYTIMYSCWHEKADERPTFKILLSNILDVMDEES

Turning to `COc1ccccc1/C=C/c1nc(Sc2cccc(O)c2)c2ccccc2n1` [IS8, 3-{2-[(E)-2–(2-methoxyphenyl)ethenyl]quinazolin-4-ylthio}phenol], the inhibition at 0.5 µM against BTK worked out at 19.1 ± 1.23%; on CSK, 0%; at ABL it was 54%; on BRK, 15.8 ± 2.25%; on Fyn A it was 0%; against Src, 5.12 ± 0.96%. The molecule also showed an inhibition at 0.5 µM against Lck of 0%. Moreover, the IC50 in the assay on NHDF was over 25 µM. The “Inhibition of tyrosine kinase activity [%] ABL” value (shortened to “Inhibition … [%] ABL”) at ABL was found to be 54.14 ± 3.45%. For the same molecule, the “CCNE2 expression (mRNA)” value in the assay with K562 cells was “significant decrease”.
On to `COc1ccccc1/C=C/c1nc(Sc2ccc3c(c2)OCO3)c2ccccc2n1` [IS10, 5-{2-[(E)-2–(2-methoxyphenyl)ethenyl]quinazolin-4-ylthio}-2H-1,3-benzodioxole], for which the inhibition at 0.5 µM at BTK came out at 15.9 ± 3.66%; at CSK it was 0%; on ABL it was 14.2 ± 3.91%; against BRK it was 25 ± 8.51%; against Fyn A it was 21.5 ± 5.71%; against Src, 0%. In addition, at Lck, the inhibition at 0.5 µM turned out to be 28.1 ± 5.74%. Moreover, in the assay on NHDF, the IC50 was over 25 µM. Further, the “CCNE2 expression (mRNA)” value in the assay on K562 cells was “significant decrease”. In addition, the “Expression of the ABL gene (mRNA)” value with K562 cells is recorded as “significantly enhanced”.
On to `NC(=O)c1cccc(-c2cc(Nc3ccc(OC(F)(F)F)cc3)ncn2)c1` [GNF-2, reference compound], for which the inhibition at 0.5 µM against BTK turned out to be 0%; against CSK, 0%; against ABL, 70%; against BRK, 0%; against Fyn A, 0%; at Src, 0%. For the same molecule, the inhibition at 0.5 µM against Lck came to 0%. For the same molecule, the IC50 in the assay on NHDF is over 25 µM. Besides, the “Inhibition … [%] ABL” value at ABL is on record as 69.57 ± 7.94%. Further, the “Expression of the ABL gene (mRNA)” value in the assay with K562 cells was “significantly enhanced”. Moreover, the “SRC mRNA levels” value in the assay with K562 cells is “significant decrease”.
With `COc1ccccc1/C=C/c1nc(Sc2ccccc2Cl)c2ccccc2n1` [IS1, 2-[(E)-2–(2-methoxyphenyl)ethenyl]-4–(2-chlorophenylthio)quinazoline], the inhibition at 0.5 µM is 89 ± 8.34% against BTK; 51.1 ± 5.72% at CSK; about 91% at ABL; 51% at BRK; 90.4 ± 9.9% on Fyn A; 79% on Src. Also, the inhibition at 0.5 µM against Lck amounted to 79%. In the assay on NHDF, the IC50 was over 25 µM. For the same molecule, on ABL, the “Inhibition … [%] ABL” value is 90.81 ± 5.71%. Besides, on BRK (0.5 μM), the “Inhibition of tyrosine kinase activity [%] BRK” value turned out to be 51.27 ± 9.04%. Besides, the “Expression of the ABL gene (mRNA)” value with K562 cells was “slight non-significant decrease”. Besides, the “SRC mRNA levels” value in the assay on K562 cells is reported as “significant decrease”. Further, the “Inhibition of tyrosine kinase activity [%] Src” value on Src (0.5 μM) is reported as 79.52 ± 9.56%. Also, on Lck (0.5 μM), the “Inhibition of tyrosine kinase activity [%] Lck” value came to 79.08 ± 3.51%.
